The Cmax is the highest concentration seen after dosing. What is called half-life is how long it takes for the measured level to halve. Lower therefore signals fast loss. One may read the EC50 as the concentration giving half of the maximal effect. A lower EC50 goes with greater potency.

A short description of data set [1]: Cmax in C57B6 mouse at 2 mg/kg, po administered as solution. Format: ADME, organism-based. The arrangement: route oral, dose 2 mg/kg. The settings on record: in vivo.
Data set [2] is described as follows: Half life in C57B6 mouse at 1 mg/kg, iv. The settings on record: in vivo. Format: ADME, organism-based.
Data set [3] deals with T1, Peroxisome proliferator-activated receptor delta (Homo sapiens, UniProt Q03181).
T1 sequence (Q03181 whole entry): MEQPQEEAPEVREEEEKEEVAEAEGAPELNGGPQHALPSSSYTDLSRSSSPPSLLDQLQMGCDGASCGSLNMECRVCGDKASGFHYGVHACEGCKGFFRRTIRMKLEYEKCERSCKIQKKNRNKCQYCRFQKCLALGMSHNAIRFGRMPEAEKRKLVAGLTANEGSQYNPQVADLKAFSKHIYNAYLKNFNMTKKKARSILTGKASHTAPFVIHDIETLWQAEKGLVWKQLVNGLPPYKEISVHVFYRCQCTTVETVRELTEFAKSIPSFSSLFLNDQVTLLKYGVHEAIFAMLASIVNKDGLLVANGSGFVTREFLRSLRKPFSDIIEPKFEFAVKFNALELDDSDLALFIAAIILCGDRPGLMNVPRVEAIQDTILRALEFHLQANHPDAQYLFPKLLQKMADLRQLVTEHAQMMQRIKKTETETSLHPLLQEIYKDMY
Put plainly: Activation of PPARdelta LBD (unknown origin) co-expressed with Gal4UAS-luciferase reporter in HEK293 cells incubated for 24 hrs by Steady-Glo luciferase reporter gene based luminescence analysis. Format: cell-based. (In general: In a reporter assay the amount or activity of a reporter protein is the signal.)

For data set [4], the target named is T2, Peroxisome proliferator-activated receptor alpha (Homo sapiens, UniProt Q07869).
T2 sequence (Q07869 whole entry): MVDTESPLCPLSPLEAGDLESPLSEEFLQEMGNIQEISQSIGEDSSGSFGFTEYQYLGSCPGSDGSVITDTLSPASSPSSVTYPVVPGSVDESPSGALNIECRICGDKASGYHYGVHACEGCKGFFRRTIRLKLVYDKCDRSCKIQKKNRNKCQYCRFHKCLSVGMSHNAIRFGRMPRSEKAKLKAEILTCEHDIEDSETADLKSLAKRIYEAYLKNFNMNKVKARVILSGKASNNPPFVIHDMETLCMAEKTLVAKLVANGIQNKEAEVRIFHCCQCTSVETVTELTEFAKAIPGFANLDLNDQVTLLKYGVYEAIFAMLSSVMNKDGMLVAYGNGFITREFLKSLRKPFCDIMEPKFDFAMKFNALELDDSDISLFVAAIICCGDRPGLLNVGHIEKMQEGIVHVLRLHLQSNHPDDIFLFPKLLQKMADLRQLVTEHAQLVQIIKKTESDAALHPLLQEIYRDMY
As to the kind of experiment: Activation of PPARalpha LBD (unknown origin) co-expressed with Gal4UAS-luciferase reporter in HEK293 cells incubated for 24 hrs by Steady-Glo luciferase reporter gene based luminescence analysis. Format: cell-based.

In turn, `O=C(O)c1cc(C(F)(F)F)c2cc(N3CCC4(C=C(c5c(-c6c(Cl)cncc6Cl)noc5C5CC5)C4)CC3)ccc2n1` came in with a Cmax in data set [1] of 1220 nM. The compound further had a half-life in data set [2] of 2.6 h. Besides, the EC50 in data set [3] and in data set [4] was > 40 µM in each case.

The record behind these values is ChEMBL document CHEMBL4823324, “Discovery of BMS-986318, a Potent Nonbile Acid FXR Agonist for the Treatment of Nonalcoholic Steatohepatitis” (ACS Med Chem Lett, 2021).
